Reference: patent US20240226115A1, “AXL INHIBITOR COMPOUNDS” (ARCUS BIOSCIENCES, INC., priority 2021, published 2024)

How the values were obtained:
Axl = biological target: T1, Axl (Homo sapiens, UniProt P30530); assay: HTRF KinEASE-TK biochemical potency, AXL; parameters: purchased Invitrogen; conditions: 5 nM AXL, 700 μM ATP
T1 sequence (P30530 26-894): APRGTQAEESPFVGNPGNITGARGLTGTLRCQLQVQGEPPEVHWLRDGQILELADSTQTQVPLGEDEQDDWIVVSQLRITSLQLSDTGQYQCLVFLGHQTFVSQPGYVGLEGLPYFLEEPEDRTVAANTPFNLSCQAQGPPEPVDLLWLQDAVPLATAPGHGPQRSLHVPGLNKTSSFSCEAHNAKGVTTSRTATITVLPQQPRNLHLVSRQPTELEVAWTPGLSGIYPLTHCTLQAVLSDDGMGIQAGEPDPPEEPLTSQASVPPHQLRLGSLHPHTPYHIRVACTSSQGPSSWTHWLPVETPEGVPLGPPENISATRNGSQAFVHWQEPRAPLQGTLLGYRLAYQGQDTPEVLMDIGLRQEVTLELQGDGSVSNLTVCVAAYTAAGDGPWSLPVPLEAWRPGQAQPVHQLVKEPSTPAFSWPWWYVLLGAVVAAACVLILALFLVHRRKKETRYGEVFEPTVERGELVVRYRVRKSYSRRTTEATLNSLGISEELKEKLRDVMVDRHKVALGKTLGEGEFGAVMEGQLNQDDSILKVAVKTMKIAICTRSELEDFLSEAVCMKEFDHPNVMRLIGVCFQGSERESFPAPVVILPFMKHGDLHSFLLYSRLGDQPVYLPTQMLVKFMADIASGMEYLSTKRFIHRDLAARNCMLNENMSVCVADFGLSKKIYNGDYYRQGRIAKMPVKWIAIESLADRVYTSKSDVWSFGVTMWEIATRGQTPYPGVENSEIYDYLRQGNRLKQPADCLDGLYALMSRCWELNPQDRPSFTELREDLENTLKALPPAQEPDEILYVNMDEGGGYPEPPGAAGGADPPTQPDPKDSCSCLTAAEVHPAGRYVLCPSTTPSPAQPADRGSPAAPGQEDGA
Method in brief: (§1)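 Enzyme preincubated with compound 1 h at RT; final 5 nM AXL or 1 nM TYRO3/MER, 800 nM TK substrate-biotin, 700 μM ATP, HEPES pH 7.4, MgCl2, 1% DMSO, 2 h at RT. HTRF 665/620 ratio read after streptavidin-XL665/cryptate antibody detection; percent activity relative to DMSO and pre-stopped controls.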

recombinant human TYRO3 = biological target: T2, recombinant human TYRO3 (Homo sapiens, UniProt Q06418); assay: HTRF KinEASE-TK biochemical potency, TYRO3; conditions: 1 nM TYRO3, 700 μM ATP
T2 construct: purchased Invitrogen
T2 sequence (Q06418 41-890): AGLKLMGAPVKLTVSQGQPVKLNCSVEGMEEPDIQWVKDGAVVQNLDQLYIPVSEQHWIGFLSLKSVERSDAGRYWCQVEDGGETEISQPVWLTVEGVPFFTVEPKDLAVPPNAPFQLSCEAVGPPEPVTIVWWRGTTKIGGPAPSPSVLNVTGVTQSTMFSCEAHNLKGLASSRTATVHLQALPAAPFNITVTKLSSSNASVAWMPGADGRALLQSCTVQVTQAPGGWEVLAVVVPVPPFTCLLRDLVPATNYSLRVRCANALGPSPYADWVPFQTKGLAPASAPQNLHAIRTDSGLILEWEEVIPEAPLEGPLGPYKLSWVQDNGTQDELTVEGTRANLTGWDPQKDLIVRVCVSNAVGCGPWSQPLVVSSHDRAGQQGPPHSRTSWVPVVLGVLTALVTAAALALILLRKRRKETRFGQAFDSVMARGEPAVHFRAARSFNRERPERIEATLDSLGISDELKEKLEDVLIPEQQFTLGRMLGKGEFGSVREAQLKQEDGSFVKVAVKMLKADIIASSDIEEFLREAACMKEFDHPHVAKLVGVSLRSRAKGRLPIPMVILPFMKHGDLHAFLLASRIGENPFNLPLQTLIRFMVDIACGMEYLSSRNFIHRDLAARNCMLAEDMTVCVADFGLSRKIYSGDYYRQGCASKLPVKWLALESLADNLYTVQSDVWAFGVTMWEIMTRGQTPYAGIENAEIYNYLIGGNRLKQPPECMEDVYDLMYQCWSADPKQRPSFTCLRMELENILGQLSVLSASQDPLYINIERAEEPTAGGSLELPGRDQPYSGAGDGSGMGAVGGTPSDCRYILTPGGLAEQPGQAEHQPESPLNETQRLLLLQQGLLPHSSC
Method in brief: as §1

Compound	IC50 (Axl) [nM]	IC50 (recombinant human TYRO3) [nM]
O=C1NCCOc2cc(-c3n[nH]c4ncc(-c5ccc6c(c5)CN(C5CCCC5)CC6)cc34)ccc21 [Example 10, 8-(5-(2-Cyclopentyl-1,2,3,4-tetrahydroisoquinolin-7-yl)-1H-pyrazolo[3,4-b]pyridin-3-yl)-3,4-dihydrobenzo[f][1,4]oxazepin-5(2H)-one]	< 100	< 100
CC[C@@H]1CCCN1C1CCc2ccc(-c3cnc4[nH]nc(-c5ccc6c(c5)OCCNC6=O)c4c3)cc2CC1 (stereo partly drawn) [Example 25, 8-(5-{7-[(2R)-2-Ethylpyrrolidin-1-yl]-6,7,8,9-tetrahydro-5H-benzo[7]annulen-2-yl}-1H-pyrazolo[3,4-b]pyridin-3-yl)-2,3,4,5-tetrahydro-1,4-benzoxazepin-5-one]	< 100	< 100
O=C1NCCOc2cc(-c3n[nH]c4ncc(-c5ccc6c(c5)CCC(N5CCC5)CC6)cc34)ccc21 (stereo not drawn) [Example 52, 8-(5-(7-(Azetidin-1-yl)-6,7,8,9-tetrahydro-5H-benzo[7]annulen-2-yl)-1H-pyrazolo[3,4-b]pyridin-3-yl)-3,4-dihydrobenzo[f][1,4]oxazepin-5(2H)-one]	< 100	< 100
